One data set relates to THP-1 cells. It counts as cell-based. Conditions: percent of living cells (PI negative), b192. An excerpt:
Cell vitality: The percent of living cells (PI negative) must be above 80% in all samples.

In a further data set the test system is CD86 (B7.2). Conditions: for CD86 % compared to CN: THP-1, 24 h; for CD86 MFI: THP-1, 24 h at 37° C. The text has this: (§1) The purpose of the test is to assess the absence of pro-sensitizing skin effects from finished products or raw materials intended for contact with the skin or mucous membranes, such as medical devices, cosmetics, toys or textiles. In the present study, we used a human monocytes cell line (THP-1) as prototypic blood-derived immunologically active cell. On these cells, we tested the expression of two costimulatory molecules, CD54 (Intercellular Adhesion Molecule) and CD86 (B7.2), using as a positive control Nickel sulphate, a well-known contact sensitizing agent. Nickel sulphate is able to cause in vivo allergic immune reactions (skin sensitization) and it is also been widely used to study in vitro immune response modulation. As silicone elastomer (Silicone 30A—example of medical grade silicone) was tested at two concentrations, against Nickel positive controls.
(§2) The increasing expression level of CD54 and CD86 on monocytes is a signal of activation of the immune response derived from the exposition to a potentially sensitizing contact antigen. The expression of co-stimulatory molecules on the dendritic cells means activation of the immunological response in terms of capability to present the antigen in the typical tissues (skin in this case), where, in vivo, the immune protective response is triggered.
(§3) The normative reference is OECD Guideline 442E, “In vitro Skin Sensitization; Human Cell Line Activation Test (hCLAT)”, which is hereby incorporated by reference in its entirety. The method differs from the OECD Guideline as the test is performed in a single experimental session instead of three independent tests. As positive control, Nickel Sulfate is used instead of DNCB. […] In addition, the acceptance criteria and choice of concentrations to be used in the final test have been optimized according to the laboratory's historical results over the past 10 years.
(§4) The test is carried out on a monocyte-like human line called THP-1. Cells are kept in RPMI containing 10% FCS and 2 mM glutamine.
(§5) The sample has been eluted in phosphate buffered saline (1 g/5 ml) for 24 hours at 37° C. The eluted sample was diluted in the cell culture medium at different concentrations for the preliminary cytotoxicity screening on the cells aimed to decide the best concentration to test it without cytotoxic effects on the monocytes, in order to avoid false results. Cell medium exposed to the same experimental conditions were used as a negative control.
(§6) Following the results of the preliminary assay, the eluted sample was diluted directly in the cell medium at the two different dilutions in order to obtain the desired final concentrations in contact with the THP-1 cells in vitro. The exposure has been carried out for 24 h at 37° C. with 5% CO2.
(§7) After the incubation with the tested substance and the controls, cells are collected, checked under the microscope for their viability by staining with Trypan Blue dye and counting in a cell counter chamber, washed in PBS and then marked with a fluoresceinated anti-Intercellular Adhesion Molecule (CD54) or B7.2 (CD86) antibody and in both cases with a propidium iodide (PI) solution to simultaneously measure the percentage of dead cells. To this aim, a PI working solution (1 ml PI stock solution (1 mg PI/ml water) in 20 ml PI buffer (1 g glucose/l PBS without Ca/Mg)) is added to […]. A gate is set on the negative cells in order to exclude the dead cells. Only viable cells are included for analyses of CD54 or CD86 expression. After washing, to eliminate the excess antibody, the MFI (Mean Fluorescence Intensity) linked to the cells is evaluated by means of a flux cytofluorimeter (FACS, Fluorescence Activated Cell Sorter, Becton Dickinson, Mountain View, Calif.). This value is proportional to the expression of co-stimulatory molecules.
(§8) The results are expressed in terms of MFI (Mean Fluorescence Intensity).

The test system of data set [1] is CD54 (Intercellular Adhesion Molecule). Conditions: for CD54 % compared to Negative Control (CN): THP-1, 24 h; for CD54 MFI: THP-1, 24 h at 37° C.
From the text: as §1, §2, §3, §4, §5, §6, §7, §8

Read-outs that look alike come from different tables or passages of the source.

Results on one compound are retold here after patent US11512821B2, “Systems and method for evaluating ultraviolet-protection products” (ABICH INC., priority 2019, dated 2022).

Consider `O.O.O.O.O.O.O=S(=O)([O-])[O-].[Ni+2]` [Nickel Sulfate, Nickel Sulphate (NiSO4.6H2O)], for which the values for the PI in the data set with THP-1 cells (4 μg/ml), with THP-1 cells (10 μg/ml) and in the data set with THP-1 cells (20 μg/ml) were 88, 86 and 86, respectively. For the same compound, the “CD86 % compared to CN” value is reported as 27.95% in the data set on CD86 (B7.2) (4 μg/ml), 146.23% in the data set with CD86 (B7.2) (10 μg/ml) and 399.03% with CD86 (B7.2) (20 μg/ml). The “CD86 MFI” value with CD86 (B7.2) (4 μg/ml) worked out at 26.32; in the data set with CD86 (B7.2) (10 μg/ml), 50.65; with CD86 (B7.2) (20 μg/ml) it was 102.65. The “CD54 % compared to Negative Control (CN)” value in data set [1] (4 μg/ml) is 35.74%; in data set [1] (10 μg/ml), 63.61%; in data set [1] (20 μg/ml), 163.94%. Moreover, the “CD54 MFI” value in data set [1] (4 μg/ml) is given as 33.65; in data set [1] (10 μg/ml), 40.56; in data set [1] (20 μg/ml) it was 65.43.
